Six compounds from patent publication US6608086B2, “Dihydropyridines and new uses thereof” (Synaptic Pharmaceutical Corporation, priority 1993, dated 2003) can be followed below.

pKi: −log10 of the molar value. Like-named read-outs stand apart in the source and are kept apart here.

Assay [1] concerns the target T1, α1A Human Adrenergic Receptor (Homo sapiens, UniProt P25100).
T1 construct: The entire coding region of α1A (1719 bp); expressed in transfected cells
T1 sequence (P25100 1-572): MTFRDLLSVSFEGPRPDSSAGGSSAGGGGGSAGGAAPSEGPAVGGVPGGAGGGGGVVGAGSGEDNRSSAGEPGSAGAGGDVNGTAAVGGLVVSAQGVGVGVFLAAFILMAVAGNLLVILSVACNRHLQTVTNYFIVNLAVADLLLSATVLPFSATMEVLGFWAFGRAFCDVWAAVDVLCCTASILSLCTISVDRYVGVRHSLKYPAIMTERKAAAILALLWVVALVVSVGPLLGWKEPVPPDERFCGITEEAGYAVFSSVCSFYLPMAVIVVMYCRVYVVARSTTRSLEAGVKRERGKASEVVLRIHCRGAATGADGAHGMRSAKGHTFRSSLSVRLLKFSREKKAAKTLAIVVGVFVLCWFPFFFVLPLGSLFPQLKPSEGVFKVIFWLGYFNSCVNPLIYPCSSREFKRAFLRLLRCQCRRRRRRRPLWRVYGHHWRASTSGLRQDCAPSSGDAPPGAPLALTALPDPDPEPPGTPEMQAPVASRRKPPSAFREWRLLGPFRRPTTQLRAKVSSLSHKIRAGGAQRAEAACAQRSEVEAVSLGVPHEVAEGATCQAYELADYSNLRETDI
Kind of assay: Radioligand binding, [3H]prazosin, cloned human α1A adrenergic receptor. The settings on record: for Ki / pKi: [3H]prazosin, cloned human α1A receptor, LM(tk-) cell membranes; for Ki: read-out: PKi alpha-1 1a (converted); for pKi: PKi alpha-1 1a. Put shortly: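 Transfected LM(tk−) cells are lysed by sonication and membranes collected at 30,000× g. Membranes then bind 0.5 nM [3H]prazosin for 20 min at 37° C, and the reaction is stopped by filtration over GF/B filters, with 10 μM phentolamine giving nonspecific binding.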

Assay [2] deals with T2, α1B Human Adrenergic Receptor (Homo sapiens, UniProt P35368).
T2 construct: The entire coding region of α1B (1563 bp); expressed in transfected cells
T2 sequence (P35368 1-520): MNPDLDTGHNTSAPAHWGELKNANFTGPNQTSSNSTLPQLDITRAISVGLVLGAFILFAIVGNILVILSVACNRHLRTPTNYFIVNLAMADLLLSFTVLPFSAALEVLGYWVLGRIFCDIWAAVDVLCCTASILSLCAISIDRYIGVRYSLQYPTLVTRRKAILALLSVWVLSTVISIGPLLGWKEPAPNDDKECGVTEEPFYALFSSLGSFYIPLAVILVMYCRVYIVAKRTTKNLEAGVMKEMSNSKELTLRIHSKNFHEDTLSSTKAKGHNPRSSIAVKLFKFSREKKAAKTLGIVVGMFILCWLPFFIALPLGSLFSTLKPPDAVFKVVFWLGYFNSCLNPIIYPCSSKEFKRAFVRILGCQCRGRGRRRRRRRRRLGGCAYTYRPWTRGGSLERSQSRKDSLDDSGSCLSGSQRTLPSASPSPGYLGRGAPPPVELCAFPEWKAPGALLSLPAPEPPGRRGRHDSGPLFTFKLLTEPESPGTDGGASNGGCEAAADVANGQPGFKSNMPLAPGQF
Kind of assay: Radioligand binding, [3H]prazosin, cloned human α1B adrenergic receptor. As to conditions: cloned human α1B receptor, LM(tk-) cell membranes; for Ki: read-out: PKi alpha-1 1b (converted); for pKi: PKi alpha-1 1b. The method, boiled down:
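Membranes from stably transfected LM(tk−) cells, resuspended in 50 mM Tris-HCl, 1 mM MgCl2, 0.1% ascorbic acid, pH 7.5, were incubated with 0.5 nM [3H]prazosin for 20 min at 37° C. Nonspecific binding defined with 10 μM phentolamine; bound ligand separated by GF/B filtration.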

Another assay deals with T3, α2A receptor (Homo sapiens, UniProt P08913).
T3 construct: host or cells: LM(tk-) cells, line L-α2A
T3 sequence (P08913 1-465): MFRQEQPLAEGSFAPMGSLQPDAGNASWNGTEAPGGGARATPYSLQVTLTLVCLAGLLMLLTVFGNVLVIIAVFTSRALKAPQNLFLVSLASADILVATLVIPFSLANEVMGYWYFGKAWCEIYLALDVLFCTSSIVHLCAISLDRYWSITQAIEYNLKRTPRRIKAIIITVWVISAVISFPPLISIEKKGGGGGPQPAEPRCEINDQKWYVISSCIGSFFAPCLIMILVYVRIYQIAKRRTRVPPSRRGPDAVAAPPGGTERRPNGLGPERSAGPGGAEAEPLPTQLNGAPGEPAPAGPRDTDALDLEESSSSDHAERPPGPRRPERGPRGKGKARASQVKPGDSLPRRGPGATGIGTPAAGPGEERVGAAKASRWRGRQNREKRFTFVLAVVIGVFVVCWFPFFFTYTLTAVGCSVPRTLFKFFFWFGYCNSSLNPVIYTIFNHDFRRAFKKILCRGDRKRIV
Put plainly: Competition binding, [3H]rauwolscine, human α2A receptor. The settings on record: for Ki: [3H]rauwolscine, human α2A receptor, LM(tk-) cells, read-out: PKi alpha-2 2a (converted). Put shortly:
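Lysates of LM(tk−) cells stably expressing human α2A, α2B or α2C receptors in 25 mM glycylglycine pH 7.6. Equilibrium competition against 0.5 nM [3H]rauwolscine, with 10 μM phentolamine defining nonspecific binding. Bound ligand separated by GF/B filtration.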

As for `COC(=O)C1(c2ccccc2)CCN(CCCNC(=O)C2=C(COCCN)NC(C)=C(C(C)=O)C2c2ccc(F)cc2)CC1` (stereo not drawn) [Example 245, 5-Acetyl-2-((2-aminoethyl)oxy)methyl-4-(4-fluoro)phenyl-1,4-dihydro-3-(N-3-(4-methoxycarbonyl-4-phenylpiperidin-1-yl)propyl)carboxamido-6-methylpyridine], the figures for the Ki (in assay [1]; in assay [2]; on α2A receptor) were 977 nM, 355 nM and 1050 nM, respectively.
Take `CCC1=C(C(=O)OCCO)C(c2ccc([N+](=O)[O-])cc2)C(C(=O)NCCCN2CCC(c3ccccc3)(c3ccccc3)CC2)=C(COC)N1` (stereo not drawn) [Example 246]: the pKi – broadly, −log10 of the Ki, conventionally taken in molar units – in assay [1] was 6.50; in assay [2], 6.76. In addition, the Ki on α2A receptor was 676 nM.
For `CCC1=C(C(=O)NCCOC)C(c2ccc([N+](=O)[O-])cc2)C(C(=O)NCCCN2CCC(c3ccccc3)(c3ccccc3)CC2)=C(COC)N1` (stereo not drawn) [Example 247, 6-Ethyl-1,4-dihydro-5-N-((2-methoxy)ethyl)carboxamido-2-(methyloxy)methyl-4-(4-nitro)phenyl-3-(N-(3-(4,4-diphenylpiperidin-1-yl)propyl)) carboxamidopyridine] the same measures were 6.01, 6.04 and 589 nM.
For the compound `CCC1=C(C(=O)NN2CCOCC2)C(c2ccc([N+](=O)[O-])cc2)C(C(=O)NCCCN2CCC(c3ccccc3)(c3ccccc3)CC2)=C(COC)N1` (stereo not drawn) [Example 248, 6-Ethyl-1,4-dihydro-2-((methyl)oxy)methyl-5-N-(morpholin-4yl)carboxamido-4-(4-nitro)phenyl-3-(N-(3-(4,4-diphenylpiperidin-1-yl)propyl))carboxamidopyridine], the Ki in assay [1] is 2950 nM; in assay [2], 1510 nM; on α2A receptor it was 1000 nM.
In the case of `COC(=O)C1=C(C)NC(C)=C(C(=O)NCCCN2CCC(c3ccccc3)(c3ccccc3)CC2)C1c1cccc([N+](=O)[O-])c1` (stereo not drawn) [Example 249, 1,4-Dihydro-3-methoxycarbonyl-2,6-dimethyl-4-(3-nitrophenyl)-5-(N-(3-(4,4-diphenylpiperidin-1-yl)propyl)carboxamido)-pyridine], in assay [1], the “PKi alpha-1 1a” value is listed as 6.37. For the same compound, in assay [2], the “PKi alpha-1 1b” value was 6.63. The “PKi alpha-2 2a” value at α2A receptor is reported as 5.81.
Turning to `COC(=O)C1=C(C)NC(C)=C(C(=O)NCCCN2CCC(c3ccccc3)CC2)C1c1ccc2c(c1)OCO2` (stereo not drawn) [Example 250], the Ki in assay [1] was 603 nM; in assay [2], 69.2 nM; at α2A receptor, 123 nM.
